Reference: US12285428B2 (IMBRIA PHARMACEUTICALS, INC., priority 2021, dated 2025)

Experiments:
[1] = FIH study, all parts combined: plasma PK; assay type: in vivo, human; conditions: all blood samples of subjects that received IMB-1018972
Text: The study started with the SAD part.

healthy subjects [2] = assay: FIH study, MAD part: safety and tolerability; assay type: in vivo, human
Protocol: Subjects received multiple oral doses of an IR formulation of IMB-1018972 or placebo once every 12 hours (q12h) for 14 consecutive days. Each subject participated in only 1 group during the study.
The doses were selected based upon the safety, tolerability, and PK data from the SAD part: • Group B1 multiple oral doses of an IR formulation of 150 mg IMB-1018972 (n=9) or matching placebo (n=3) twice daily (q12h) for 14 days; on Day 14 only a single morning dose was administered • Group B2: multiple oral doses of an IR formulation of 50 mg IMB-1018972 (n=9) or matching placebo (n=3) q12h for 14 days; on Day 14 only a single morning dose was administered
(§1) AEs were recorded from (first) admission until completion of the follow-up visit. Any clinically significant observations in results of clinical laboratory, 12-lead ECGs, vital signs, or physical examinations were recorded as AEs.
(§2) A treatment-emergent AE (TEAE) was defined as any event not present prior to (the first) administration of the study drug or any event already present that worsened in either severity or frequency following exposure to the study drug.
(§3) At several time points before and after drug administration, subjects were asked nonleading questions to determine the occurrence of AEs. Subjects were asked in general terms about any AEs at regular intervals during the study. In addition, all AEs reported spontaneously during the course of the study were recorded. Details included description of the event, date and time of onset, date and time of end, total duration, severity, relationship to study drug, intervention, seriousness, and outcome. All answers were interpreted by the Investigator and were recorded in the eCRF. All AEs were classified according to the Medical Dictionary for Regulatory Activities (MedDRA; Version 22.0) for AEs.
(§4) The severity of the AEs was rated as mild, moderate, or severe; the relationship between the AEs and the study drug was indicated as none, unlikely, possibly, likely, or definitely. Adverse events assessed as possibly, likely, or definitely were considered related to the study drug; AEs assessed as none or unlikely were considered not related to the study drug.
In the MAD part, a 12-lead ECG was recorded continuously by telemetry from 2 hours before to 12 hours after drug administration on Day 1, and from 2 hours before to 24 hours after drug administration on Day 14.

healthy subjects [3] = assay: FIH study, whole study: safety and tolerability
Protocol: as §1, §2, §3, §4
The following parameters were measured: • Clinical chemistry (serum quantitatively): total bilirubin, alkaline phosphatase, gamma glutamyl transferase, aspartate aminotransferase (AST), alanine aminotransferase (ALT), lactate dehydrogenase, creatinine, urea, total protein, glucose, inorganic phosphate, sodium, potassium, • calcium, and chloride • Hematology (blood quantitatively): leukocytes, erythrocytes, hemoglobin, hematocrit, thrombocytes, partial automated differentiation (lymphocytes, monocytes, eosinophils, basophils, and neutrophils), mean corpuscular volume, mean corpuscular hemoglobin, and mean corpuscular hemoglobin concentration • Coagulation (blood quantitatively): prothrombin time (reported in seconds and as international normalized ratio), activated partial thromboplastin time, and fibrinogen • Urinalysis (urine qualitatively): hemoglobin, urobilinogen, ketones, glucose, and protein • Serology: HBsAg, anti-HCV, and anti-HIV 1 and 2 • Drug and alcohol screen: opiates, methadone, cocaine, amphetamines (including ecstasy), cannabinoids, barbiturates, benzodiazepines, tricyclic antidepressants, and alcohol • Pregnancy test (females only): (3-human chorionic gonadotropin in serum
Systolic and diastolic blood pressure and pulse were recorded after the subject had been resting for at least 5 minutes in the supine position. These assessments were made using an automated device. Body temperature and respiratory rate were measured subsequently.
The ECG was recorded using an ECG machine equipped with computer-based interval measurements (with no/minimal disturbance by procedures). The following ECG parameters were recorded: heart rate, PR-interval, QRS-duration, QT-interval, QTcF-interval, and the interpretation of the ECG profile by the Investigator.
Safety and tolerability were assessed through AEs, clinical laboratory, vital signs, ECGs, continuous cardiac monitoring (telemetry), and physical examination findings, and any other parameter that was relevant for safety assessment.

[4] = MAD part, all IMB-1018972 doses (N=18)

## COc1ccc(CN2CCN(CCOC(=O)c3cccnc3)CC2)c(OC)c1OC [IMB-1018972, 2-[4-[(2,3,4-trimethoxyphenyl)methyl]piperazin-1-yl]ethyl pyridine-3-carboxylate]
[1]
  IMB-1018972 in plasma: could be measured in only few plasma samples
Healthy subjects [2]; 50 mg IMB-1018972 q12h
  TEAEs of flushing: No TEAEs of flushing
Healthy subjects [2]; 50 mg IMB-1018972 q12h fed
  Number of TEAEs: 21
  Subjects reporting TEAEs: 77.8%
Healthy subjects [2]; 150 mg IMB-1018972 q12h
  Number of TEAEs of flushing (incidental, mild): 7
  Subjects with TEAEs of flushing: 6 subjects
Healthy subjects [2]; 150 mg IMB-1018972 q12h fed
  Number of TEAEs: 14
  Subjects reporting TEAEs: 77.8%
Healthy subjects [2]; 14-day oral q12h 50 mg and 150 mg IMB-1018972, fed
  Tolerability: well tolerated
Healthy subjects [2]; MAD part
  Severity of all TEAEs: mild
Healthy subjects [2]; MAD part, IMB-1018972 (N=18)
  Number of TEAEs considered not related to the study drug: 28
  Number of TEAEs, SOC general disorders and administration site conditions: 7
  Number of TEAEs, SOC musculoskeletal and connective tissue disorders: 7
  Number of TEAEs, SOC vascular disorders (flushing): 7
  Subjects reporting TEAEs considered not related to the study drug: 61.1%
  Subjects reporting TEAEs considered related to the study drug: 33.3%
  Subjects reporting TEAEs, SOC general disorders and administration site conditions: 27.8%
  Subjects reporting TEAEs, SOC musculoskeletal and connective tissue disorders: 27.8%
  Subjects reporting TEAEs, SOC vascular disorders (flushing): 33.3%
Healthy subjects [2]; MAD part, IMB-1018972 (N=18), all flushing at 150 mg q12h
  Number of TEAEs considered related to the study drug: 7
Healthy subjects [2]; [4]
  Number of TEAEs: 35
  Subjects reporting TEAEs: 77.8%
Healthy subjects [3]; 1 SAE influenza like illness, 1 TEAE ALT increased
  Subjects withdrawn from the study due to adverse events: Two
Healthy subjects [3]; IR or MR formulations
  Hemodynamic changes and QTc-interval: no findings of hemodynamic changes, nor changes in the QTc-interval
Healthy subjects [3]; overall
  Dose dependency of number and incidence of TEAEs: no clear dose dependency
Healthy subjects [3]; single and multiple oral doses, IR and MR formulations
  Overall tolerability: generally well tolerated
Healthy subjects [3]; whole study
  Clinical laboratory, vital signs, 12-lead ECG, continuous cardiac monitoring (telemetry), physical examination: no findings of clinical relevance
  Deaths: no deaths
  Severe TEAEs: no severe TEAEs
Healthy subjects [3]; whole study, all treatments
  Number of TEAEs of moderate severity: 12
  Total number of TEAEs: 181
